GI50 and TGI data for eight compounds are collected here from PubChem BioAssay (NCI).

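Five compound concentrations were applied to cells in 96-well plates for 48 hours; endpoints were derived by simple linear interpolation of the resulting dose-response curve. GI50 is the concentration that inhibits growth by half. TGI: concentration producing complete growth inhibition.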

Holding throughout (assay): DTP human tumour cell line panel, 48 h
Assay [1] has as its system MALME-3M melanoma.
Assay [2] has as its system COLO 205 colon.
Assay [3] has as its system IGROV1 ovarian.
Assay [4] concerns HCT-15 colon.
Assay [5] concerns SN12C renal.
The test system of assay [6] is SF-295 CNS.
The subject of assay [7] is SK-MEL-5 melanoma.
The subject of assay [8] is HCC-2998 colon.
In assay [9] the test system is UO-31 renal.
Assay [10] has as its system TK-10 renal.

With `c1cn2cc(-c3ccc4cn[nH]c4c3)nc(Nc3ccc(N4CCOCC4)cc3)c2n1`, the GI50 (as a rule, the concentration that inhibits growth by half) in [1] is 10.4 µM; in assay [2], 41.3 µM; in assay [3], 16.5 µM; in assay [4], 11.7 µM; in assay [5], 17 µM; in [6], 10.6 µM. The GI50 in assay [7] was 15.5 µM; in assay [8], 61.6 µM; in assay [9] it was 14.6 µM; in assay [10], 17.3 µM. Further, the TGI (usually the concentration at which net growth stops) in assay [1] is 27.3 µM; in assay [2], over 100 µM; in assay [3], 46 µM; in assay [4], 41.1 µM; in [5], 41.2 µM; in [6], 29.5 µM. Also, the TGI in assay [7] is 40.1 µM; in assay [8] it was over 100 µM; in [9] it was 34.8 µM; in assay [10], 37.8 µM.
With `CCOC(=O)/C=C/C(C(=O)/C=C/c1ccc(O)c(OC)c1)=C(O)\C=C\c1ccc(O)c(OC)c1`, the GI50 in assay [1] is 9.93 µM; in [2] it was 3.14 µM; in [3] it was 11 µM; in assay [4], 2.27 µM; in [5], 1.88 µM; in assay [6], 14.6 µM. Besides, the GI50 in assay [7] was 2.22 µM; in [8] it was 1.77 µM; in assay [9] it was 16.9 µM; in [10], 5.3 µM. Further, the TGI in assay [1] is over 100 µM; in [2] it was 12.8 µM; in assay [3] it was 93.8 µM; in assay [4], 6.99 µM; in assay [5], 8.16 µM; in assay [6], 47 µM. The TGI stood at 6 µM in [7], 3.74 µM in [8], 49.1 µM in assay [9] and 29.2 µM in [10].
As to `CC(=O)OC1CC2(O)C3CCC4CC(O)CCC4(C)C3CCC2(C)C1C1=CC(=O)OC1` (stereo not given), the TGI worked out at 0.111 µM in [1]; 0.76 µM in assay [2]; 1.77 µM in [3]; 0.253 µM in assay [4]; 0.16 µM in assay [5]; 0.222 µM in assay [6]. Besides, the TGI in assay [7] is 0.116 µM; in assay [8], 0.39 µM; in assay [9], 0.27 µM; in assay [10], 0.489 µM.
`C=C1C(=O)O[C@H]2[C@H]1CC/C(COC(=O)NCCc1c[nH]c3ccc(OC)cc13)=C\CC[C@@]1(C)O[C@@H]21`: the GI50 in assay [1] is 1.91 µM; in assay [2] it was 1.3 µM; in assay [3], 2.08 µM; in assay [4], 1.14 µM; in assay [5] it was 1.81 µM; in assay [6], 10.3 µM. The GI50 is 3.13 µM in assay [7], 2.34 µM in assay [8], 1.46 µM in assay [9] and 1.61 µM in [10]. In addition, the TGI came out at 3.9 µM in assay [1]; 2.78 µM in [2]; 4.7 µM in [3]; 2.45 µM in [4]; 3.8 µM in [5]; 22.2 µM in [6]. In addition, the TGI is 10.6 µM in assay [7], 5.64 µM in assay [8], 2.77 µM in assay [9] and 3.11 µM in assay [10].
Take `O=C(Cc1cccc(OC(F)(F)F)c1)Nc1ccc(CCCCc2nnc(NC(=O)Cc3ccccn3)s2)nn1`: the GI50 in [1] was 28.6 µM; in assay [2], 23.8 µM; in assay [3] it was 17.3 µM; in assay [4] it was over 100 µM; in assay [5], 18.5 µM; in assay [6], 11.5 µM. For the same compound, the GI50 in assay [7] is 16.1 µM; in assay [8], 52.4 µM; in [9], 2.85 µM; in assay [10] it was 11.7 µM. The TGI is over 100 µM in [1]; over 100 µM in [2]; over 100 µM in [3]; over 100 µM in [4]; over 100 µM in [5]; 31.4 µM in [6]. In addition, the TGI in assay [7] was over 100 µM; in assay [8], over 100 µM; in assay [9], 28.9 µM; in assay [10] it was 24.5 µM.
Take `COc1ccc2c(c1)C(c1ccccc1Cl)=Nc1c(n[nH]c1C)N2`: the GI50 is over 25 µM in assay [1]; 11.7 µM in assay [2]; over 25 µM in assay [3]; 14 µM in [4]; over 20.3 µM in assay [5]; over 25 µM in assay [6]. For the same compound, the GI50 is over 25 µM in [7], over 25 µM in [8], 13.9 µM in assay [9] and over 25 µM in [10]. The concentration for total growth inhibition (TGI) in assay [1], in assay [2], in assay [3], in [4], in [5] and in assay [6] was over 25 µM throughout. For the same compound, the TGI in [7], in assay [8], in assay [9] and in assay [10] was over 25 µM each time.
Turning to `C/C(=N\N=C(/[Se])N1CC2CCC(CC2)C1)c1ccccn1`, the TGI in assay [1] came out at 0.567 µM; in assay [2] it was 0.063 µM; in assay [3], 2.48 µM; in assay [4], 2.06 µM; in assay [5], 2.57 µM; in [6] it was 2.24 µM. For the same compound, the TGI in [7] stood at 0.433 µM; in [8] it was 1.5 µM; in [9] it was 1.9 µM; in assay [10], 3.7 µM.
For the compound `Cc1ccc(SC2=CC(=O)c3nc4ccccc4c4ccnc2c34)cc1`, the GI50 in [1] is 46.7 µM; in [2], 39.4 µM; in assay [3], over 37.9 µM; in assay [4] it was 18.4 µM; in [5] it was 66.6 µM; in assay [6], over 100 µM. Besides, the GI50 was 29.1 µM in [7], over 67.8 µM in assay [8], 15.5 µM in [9] and 53.6 µM in assay [10]. The TGI in assay [1] is over 69.5 µM; in [2], over 85.6 µM; in [3] it was over 58.5 µM; in assay [4], 40.6 µM; in assay [5], over 100 µM; in assay [6] it was over 100 µM. The TGI in assay [7] is over 66.8 µM; in assay [8], over 100 µM; in [9], 29.7 µM; in [10], over 100 µM.
